Measured values as given in patent publication US7704995B2 (Exelixis, Inc., priority 2003, dated 2010).

Molecular target: T1, Chk1 (Homo sapiens, UniProt O14757)
T1 construct: purchased Upstate Biotechnology
T1 sequence (O14757 1-476): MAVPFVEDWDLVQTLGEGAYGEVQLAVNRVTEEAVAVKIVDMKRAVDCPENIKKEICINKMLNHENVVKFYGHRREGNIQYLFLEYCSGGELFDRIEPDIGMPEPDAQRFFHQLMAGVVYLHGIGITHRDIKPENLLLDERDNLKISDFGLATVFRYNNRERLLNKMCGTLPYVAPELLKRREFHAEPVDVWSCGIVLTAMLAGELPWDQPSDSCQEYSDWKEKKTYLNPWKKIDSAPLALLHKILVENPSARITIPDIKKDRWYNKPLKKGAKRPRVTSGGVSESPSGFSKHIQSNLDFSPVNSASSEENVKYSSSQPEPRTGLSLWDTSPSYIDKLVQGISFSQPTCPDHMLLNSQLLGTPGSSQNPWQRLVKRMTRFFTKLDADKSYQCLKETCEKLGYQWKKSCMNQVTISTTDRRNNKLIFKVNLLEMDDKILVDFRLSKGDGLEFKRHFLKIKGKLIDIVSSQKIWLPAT
Experiment: Chk1 kinase assay: incorporation of γ-33P ATP into immobilized myelin basic protein
Format: biochemical
Conditions: Table 11, Chk1 only; class symbols A-D; read-out: Chk1 IC50
Outline: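 Chk1 (10 nM) or Chk2 (20 nM) phosphorylated plate-immobilized myelin basic protein for 1 h at room temperature in Hepes pH 7.6 buffer with MgCl2, DTT, 1% DMSO, γ-33P ATP plus 10 μM (Chk1) or 30 μM (Chk2) unlabeled ATP. Bound radioactivity counted by scintillation; IC50 determined, Ki derivable from IC50.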

Nc1ncc(-c2cccc(NC(=O)Cc3cccc(C(F)(F)F)c3)c2)nc1C(=O)N[C@H]1CCCNC1 [Example 976, 3-amino-N-[(3S)-piperidin-3-yl]-6-[3-({[3-(trifluoromethyl)phenyl]acetyl}amino)phenyl]pyrazine-2-carboxamide]
IC50: < 50 nM

COc1ccc(CC(=O)Nc2cccc(-c3cnc(N)c(C(=O)N[C@H]4CCCNC4)n3)c2)cc1 [Example 977, 3-amino-6-[3-({[4-(methyloxy)phenyl]acetyl}amino)phenyl]-N-[(3S)-piperidin-3-yl]pyrazine-2-carboxamide]
IC50: < 50 nM

Nc1ncc(-c2cccc(NC(=O)Cc3cccc(F)c3)c2)nc1C(=O)N[C@H]1CCCNC1 [Example 979, 3-amino-6-(3-{[(3-fluorophenyl)acetyl]amino}phenyl)-N-[(3S)-piperidin-3-yl]pyrazine-2-carboxamide]
IC50: < 50 nM

Nc1ncc(-c2cccc(NC(=O)Cc3cccnc3)c2)nc1C(=O)N[C@H]1CCCNC1 [Example 980, 3-amino-N-[(3S)-piperidin-3-yl]-6-{3-[(pyridin-3-ylacetyl)amino]phenyl}pyrazine-2-carboxamide]
IC50: < 50 nM

Nc1ncc(-c2cccc(NC(=O)c3cccnc3)c2)nc1C(=O)N[C@H]1CCCNC1 [Example 981, 3-amino-N-[(3S)-piperidin-3-yl]-6-{3-[(pyridin-3-ylcarbonyl)amino]phenyl}pyrazine-2-carboxamide]
IC50: < 50 nM

Nc1ncc(-c2cccc(NC(=O)Cc3cc(F)ccc3F)c2)nc1C(=O)N[C@H]1CCCNC1 [Example 982, 3-amino-6-(3-{[(2,5-difluorophenyl)acetyl]amino}phenyl)-N-[(3S)-piperidin-3-yl]pyrazine-2-carboxamide]
IC50: < 50 nM

Nc1ncc(-c2cccc(NC(=O)Cc3ccc(F)cc3)c2)nc1C(=O)N[C@H]1CCCNC1 [Example 983, 3-amino-6-(3-{[(4-fluorophenyl)acetyl]amino}phenyl)-N-[(3S)-piperidin-3-yl]pyrazine-2-carboxamide]
IC50: < 50 nM

Nc1ncc(-c2cccc(C(=O)NCc3ccc(Cl)c(Cl)c3)c2)nc1C(=O)N[C@H]1CCCNC1 [Example 985, 3-amino-6-[3-({[(3,4-dichlorophenyl)methyl]amino}carbonyl)phenyl]-N-[(3S)-piperidin-3-yl]pyrazine-2-carboxamide]
IC50: < 50 nM

Nc1ncc(-c2cccc(CNC(=O)c3ccc(-c4ccc([N+](=O)[O-])cc4)o3)c2)nc1C(=O)N[C@H]1CCCNC1 [Example 986, 3-Amino-6-[3-({[5-(4-nitro-phenyl)-furan-2-carbonyl]-amino}-methyl)-phenyl]-pyrazine-2-carboxylic acid (3S)-piperidin-3-ylamide]
IC50: < 50 nM

Nc1ncc(-c2cccc(CNC(=O)c3ncccc3O)c2)nc1C(=O)N[C@H]1CCCNC1 [Example 987, 3-amino-6-[3-({[(3-hydroxypyridin-2-yl)carbonyl]amino}methyl)phenyl]-N-[(3S)-piperidin-3-yl]pyrazine-2-carboxamide]
IC50: < 50 nM

Nc1ncc(-c2cccc(CNC(=O)COc3ccc(OC(F)(F)F)cc3)c2)nc1C(=O)N[C@H]1CCCNC1 [Example 988, 3-amino-N-[(3S)-piperidin-3-yl]-6-[3-({[({4-[(trifluoromethyl)oxy]phenyl}oxy)acetyl]amino}methyl)phenyl]pyrazine-2-carboxamide]
IC50: < 50 nM

Cc1cc(C(=O)NCc2cccc(-c3cnc(N)c(C(=O)N[C@H]4CCCNC4)n3)c2)no1 [Example 989, 3-amino-6-[3-({[(5-methylisoxazol-3-yl)carbonyl]amino}methyl)phenyl]-N-[(3S)-piperidin-3-yl]pyrazine-2-carboxamide]
IC50: < 50 nM

Nc1ncc(-c2cccc(CNC(=O)c3ccno3)c2)nc1C(=O)N[C@H]1CCCNC1 [Example 990, 3-amino-6-(3-{[(isoxazol-5-ylcarbonyl)amino]methyl}phenyl)-N-[(3S)-piperidin-3-yl]pyrazine-2-carboxamide]
IC50: < 50 nM

Cc1nnsc1C(=O)NCc1cccc(-c2cnc(N)c(C(=O)N[C@H]3CCCNC3)n2)c1 [Example 991, 3-amino-6-[3-({[(4-methyl-1,2,3-thiadiazol-5-yl)carbonyl]amino}methyl)phenyl]-N-[(3S)-piperidin-3-yl]pyrazine-2-carboxamide]
IC50: < 50 nM

Nc1ncc(-c2cccc(CNC(=O)c3cc(Cl)sc3Cl)c2)nc1C(=O)N[C@H]1CCCNC1 [Example 992, 3-amino-6-[3-({[(2,5-dichloro-3-thienyl)carbonyl]amino}methyl)phenyl]-N-[(3S)-piperidin-3-yl]pyrazine-2-carboxamide]
IC50: < 50 nM

Cc1ccc(Cl)cc1CNC(=O)c1cccc(-c2cnc(N)c(C(=O)N[C@H]3CCCNC3)n2)c1 [Example 993, 3-amino-6-[3-({[(5-chloro-2-methylphenyl)methyl]amino}carbonyl)phenyl]-N-[(3S)-piperidin-3-yl]pyrazine-2-carboxamide]
IC50: < 50 nM

Nc1ncc(-c2cccc(C(=O)NCc3c(F)cccc3Cl)c2)nc1C(=O)N[C@H]1CCCNC1 [Example 995, 3-amino-6-[3-({[(2-chloro-6-fluorophenyl)methyl]amino}carbonyl)phenyl]-N-[(3S)-piperidin-3-yl]pyrazine-2-carboxamide]
IC50: < 50 nM

Nc1ncc(-c2cccc(C(=O)NCc3ccc(Cl)cc3F)c2)nc1C(=O)N[C@H]1CCCCNC1 [Example 996, 3-amino-N-[(3S)-azepan-3-yl]-6-[3-({[(4-chloro-2-fluorophenyl)methyl]amino}carbonyl)phenyl]pyrazine-2-carboxamide]
IC50: < 50 nM

Nc1ncc(-c2cccc(C(=O)NCc3cccc(Cl)c3F)c2)nc1C(=O)N[C@H]1CCCNC1 [Example 997, 3-amino-6-[3-({[(3-chloro-2-fluorophenyl)methyl]amino}carbonyl)phenyl]-N-[(3S)-piperidin-3-yl]pyrazine-2-carboxamide]
IC50: < 50 nM

Nc1ncc(-c2cccc(C(=O)NCc3cc(C(F)(F)F)ccc3F)c2)nc1C(=O)N[C@H]1CCCNC1 [Example 998, 3-amino-6-{3-[({[2-fluoro-5-(trifluoromethyl)phenyl]methyl}amino)carbonyl]phenyl}-N-[(3S)-piperidin-3-yl]pyrazine-2-carboxamide]
IC50: < 50 nM

Nc1ncc(-c2cccc(CNCc3ccc(F)cc3F)c2)nc1C(=O)N[C@H]1CCCNC1 [Example 999, 3-amino-6-[3-({[(2,4-difluorophenyl)methyl]amino}methyl)phenyl]-N-[(3S)-piperidin-3-yl]pyrazine-2-carboxamide]
IC50: < 50 nM

Nc1ncc(-c2cccc(C(=O)NCc3c(F)ccc(Cl)c3F)c2)nc1C(=O)N[C@H]1CCCNC1 [Example 1000, 3-amino-6-[3-({[(3-chloro-2,6-difluorophenyl)methyl]amino}carbonyl)phenyl]-N-[(3S)-piperidin-3-yl]pyrazine-2-carboxamide]
IC50: < 50 nM

Nc1ncc(-c2cccc(C(=O)NCc3ccc(F)cc3Cl)c2)nc1C(=O)N[C@H]1CCCNC1 [Example 1002, 3-amino-6-[3-({[(2-chloro-4-fluorophenyl)methyl]amino}carbonyl)phenyl]-N-[(3S)-piperidin-3-yl]pyrazine-2-carboxamide]
IC50: < 50 nM

Nc1ncc(-c2cccc(C(=O)NCc3cccc(Cl)c3Cl)c2)nc1C(=O)N[C@H]1CCCNC1 [Example 1003, 3-amino-6-[3-({[(2,3-dichlorophenyl)methyl]amino}carbonyl)phenyl]-N-[(3S)-piperidin-3-yl]pyrazine-2-carboxamide]
IC50: < 50 nM

Nc1ncc(-c2cccc(C(=O)NCc3c(F)ccc(F)c3F)c2)nc1C(=O)N[C@H]1CCCNC1 [Example 1004, 3-amino-N-[(3S)-piperidin-3-yl]-6-[3-({[(2,3,6-trifluorophenyl)methyl]amino}carbonyl)phenyl]pyrazine-2-carboxamide]
IC50: < 50 nM

Nc1ncc(-c2cccc(C(=O)NCc3ccc(Cl)c(C(F)(F)F)c3)c2)nc1C(=O)N[C@H]1CCCNC1 [Example 1005, 3-amino-6-{3-[({[4-chloro-3-(trifluoromethyl)phenyl]methyl}amino)carbonyl]phenyl}-N-[(3S)-piperidin-3-yl]pyrazine-2-carboxamide]
IC50: < 50 nM

Nc1ncc(-c2cccc(C(=O)NCc3cccc(F)c3F)c2)nc1C(=O)N[C@H]1CCCCNC1 [Example 1007, 3-amino-N-[(3S)-azepan-3-yl]-6-[3-({[(2,3-difluorophenyl)methyl]amino}carbonyl)phenyl]pyrazine-2-carboxamide]
IC50: < 50 nM

Nc1ncc(-c2cccc(C(=O)NCc3ccc(F)c(F)c3)c2)nc1C(=O)N[C@H]1CCCCNC1 [Example 1008, 3-amino-N-[(3S)-azepan-3-yl]-6-[3-({[(3,4-difluorophenyl)methyl]amino}carbonyl)phenyl]pyrazine-2-carboxamide]
IC50: < 50 nM

Nc1ncc(-c2cccc(C(=O)NCc3cc(F)cc(F)c3)c2)nc1C(=O)N[C@H]1CCCCNC1 [Example 1009, 3-amino-N-[(3S)-azepan-3-yl]-6-[3-({[(3,5-difluorophenyl)methyl]amino}carbonyl)phenyl]pyrazine-2-carboxamide]
IC50: < 50 nM

Nc1ncc(-c2cccc(C(=O)NCc3c(F)cccc3F)c2)nc1C(=O)N[C@H]1CCCNC1 [Example 1010, 3-amino-6-[3-({[(2,6-difluorophenyl)methyl]amino}carbonyl)phenyl]-N-[(3S)-piperidin-3-yl]pyrazine-2-carboxamide]
IC50: < 50 nM
